Test results published in PubChem BioAssay AID328 (DTP/NCI, 2004).
Several values for one entry are separate records, joined by “and”; a condition that tells them apart may be missing. Identical values can stand only once. Toxic doses and inconclusive results are not listed.

Tested on: BDF1 mice, P388 leukemia ip, median survival T/C
Assay: NCI In Vivo Anticancer Drug Screen. Data for tumor model P388 Leukemia (intraperitoneal) in B6D2F1 (BDF1) mice
Conditions: endpoint: median survival time, higher = longer survival
Procedure, shortened: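 Reported as T/C, where T is the survival measurement in dosed animals and C the same measurement in vehicle controls.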

[1] = dose: 10.0 mg/kg/injection, schedule: Q04DX003 (ip), vehicle: saline
[2] = dose: 20.0 mg/kg/injection, schedule: Q04DX003 (ip), vehicle: saline
[3] = dose: 200.0 mg/kg/injection, schedule: Q04DX003 (ip), vehicle: saline
[4] = dose: 100.0 mg/kg/injection, schedule: Q01DX009 (ip), vehicle: Klucel (hydroxypropylcellulose) (HPC)
[5] = dose: 100.0 mg/kg/injection, schedule: Q01DX009 (ip), vehicle: saline with Tween-80
[6] = dose: 200.0 mg/kg/injection, schedule: Q01DX009 (ip), vehicle: Klucel (hydroxypropylcellulose) (HPC)
[7] = dose: 200.0 mg/kg/injection, schedule: Q01DX009 (ip), vehicle: saline with Tween-80
[8] = dose: 400.0 mg/kg/injection, schedule: Q01DX009 (ip), vehicle: Klucel (hydroxypropylcellulose) (HPC)
[9] = dose: 400.0 mg/kg/injection, schedule: Q01DX009 (ip), vehicle: saline with Tween-80
[10] = dose: 12.5 mg/kg/injection, schedule: Q01DX009 (ip), vehicle: saline with Tween-80
[11] = dose: 25.0 mg/kg/injection, schedule: Q01DX009 (ip), vehicle: saline with Tween-80
[12] = dose: 50.0 mg/kg/injection, schedule: Q01DX009 (ip), vehicle: saline with Tween-80
[13] = dose: 100.0 mg/kg/injection, schedule: Q04DX003 (ip), vehicle: saline with Tween-80
[14] = dose: 100.0 mg/kg/injection, schedule: Q04DX003 (ip), vehicle: saline
[15] = dose: 100.0 mg/kg/injection, schedule: Q01DX001 (ip), vehicle: saline
[16] = dose: 200.0 mg/kg/injection, schedule: Q01DX001 (ip), vehicle: saline
[17] = dose: 100.0 mg/kg/injection, schedule: Q01DX009 (ip), vehicle: saline

COc1cccc2c1C(=O)c1c(O)c3c(c(O)c1C2=O)C[C@@](O)(C(C)=O)C[C@@H]3OC(=O)CCN
T/C (dose: 1.56 mg/kg/injection, schedule: Q01DX009 (ip), vehicle: water): 100 % of control and 123 % of control | T/C (dose: 3.12 mg/kg/injection, schedule: Q01DX009 (ip), vehicle: water): 93 % of control | T/C (dose: 6.25 mg/kg/injection, schedule: Q01DX009 (ip), vehicle: water): 169 % of control

CCCCCCCCCCCCn1c(C)nc2ccccc21
T/C [1]: 105 % of control | T/C [2]: 120 % of control | T/C (dose: 40.0 mg/kg/injection, schedule: Q04DX003 (ip), vehicle: saline): 115 % of control | T/C (dose: 60.0 mg/kg/injection, schedule: Q04DX003 (ip), vehicle: saline): 109 % of control | T/C (dose: 90.0 mg/kg/injection, schedule: Q04DX003 (ip), vehicle: saline): 104 % of control | T/C (dose: 135.0 mg/kg/injection, schedule: Q04DX003 (ip), vehicle: saline): 86 % of control | T/C [3]: 105 % of control | T/C (dose: 305.0 mg/kg/injection, schedule: Q04DX003 (ip), vehicle: saline): 110 % of control

C=CC(=O)c1c(O)cc(O)c2c1C(C)C(=O)O2 (stereo not drawn)
T/C (dose: 75.0 mg/kg/injection, schedule: Q01DX009 (ip), vehicle: Klucel (hydroxypropylcellulose) (HPC)): 113 % of control

CC(=O)CC(C)=O.CC(=O)CC(C)=O.Cc1ncc[nH]1.Cc1ncc[nH]1.[Co]
T/C (dose: 12.5 mg/kg/injection, schedule: Q01DX001 (ip), vehicle: saline with Tween-80): 100 % of control | T/C (dose: 25.0 mg/kg/injection, schedule: Q01DX001 (ip), vehicle: saline with Tween-80): 97 % of control | T/C (dose: 50.0 mg/kg/injection, schedule: Q01DX001 (ip), vehicle: saline with Tween-80): 113 % of control

CCCCCCC1CCC(N)CC1 (stereo not drawn)
T/C (dose: 12.5 mg/kg/injection, schedule: Q01DX009 (ip), vehicle: Klucel (hydroxypropylcellulose) (HPC)): 97 % of control | T/C (dose: 25.0 mg/kg/injection, schedule: Q01DX009 (ip), vehicle: Klucel (hydroxypropylcellulose) (HPC)): 101 % of control

COC1=CC(=O)CC(C)C12Oc1c(Cl)c(OC)cc(OC)c1C2=O (stereo not drawn)
T/C [4]: 100 % of control | T/C [5]: 100 % of control | T/C [6]: 109 % of control | T/C [7]: 100 % of control | T/C [8]: 100 % of control | T/C [9]: 109 % of control

CN(C)c1ccc(/C=C\c2ccnc3ccccc23)cc1Br
T/C [10]: 107 % of control | T/C [11]: 94 % of control | T/C [12]: 99 % of control | T/C [5]: 89 % of control

Fc1nc2nc(C(F)(F)F)[nH]c2nc1F
T/C (dose: 10.0 mg/kg/injection, schedule: Q01DX009 (ip), vehicle: saline with Tween-80): 104 % of control | T/C (dose: 20.0 mg/kg/injection, schedule: Q01DX009 (ip), vehicle: saline with Tween-80): 121 % of control | T/C (dose: 25.0 mg/kg/injection, schedule: Q04DX003 (ip), vehicle: saline with Tween-80): 105 % of control | T/C (dose: 40.0 mg/kg/injection, schedule: Q01DX009 (ip), vehicle: saline with Tween-80): 120 % of control | T/C (dose: 50.0 mg/kg/injection, schedule: Q04DX003 (ip), vehicle: saline with Tween-80): 99 % of control | T/C (dose: 80.0 mg/kg/injection, schedule: Q01DX009 (ip), vehicle: saline with Tween-80): 112 % of control | T/C [13]: 90 % of control and 105 % of control | T/C (dose: 160.0 mg/kg/injection, schedule: Q01DX009 (ip), vehicle: saline with Tween-80): 112 % of control

COc1c(O)c(OC)c(C(=O)/C=C/c2ccccc2)c(O)c1OC
T/C [11]: 107 % of control | T/C [12]: 114 % of control | T/C [5]: 99 % of control

c1cc[c]([Sn]([c]2ccccc2)([c]2ccccc2)[n]2cnc3ccccc32)cc1
T/C (dose: 0.1 mg/kg/injection, schedule: Q01DX009 (ip), vehicle: Klucel (hydroxypropylcellulose) (HPC)): 90 % of control | T/C (dose: 0.21 mg/kg/injection, schedule: Q01DX009 (ip), vehicle: Klucel (hydroxypropylcellulose) (HPC)): 90 % of control | T/C (dose: 0.43 mg/kg/injection, schedule: Q01DX009 (ip), vehicle: Klucel (hydroxypropylcellulose) (HPC)): 90 % of control | T/C (dose: 0.87 mg/kg/injection, schedule: Q01DX009 (ip), vehicle: Klucel (hydroxypropylcellulose) (HPC)): 90 % of control | T/C (dose: 7.0 mg/kg/injection, schedule: Q01DX009 (ip), vehicle: Klucel (hydroxypropylcellulose) (HPC)): 115 % of control | T/C (dose: 18.0 mg/kg/injection, schedule: Q04DX003 (ip), vehicle: Klucel (hydroxypropylcellulose) (HPC)): 100 % of control | T/C (dose: 28.0 mg/kg/injection, schedule: Q04DX003 (ip), vehicle: Klucel (hydroxypropylcellulose) (HPC)): 86 % of control

CCCCCCCCCCCC[S+](C)C
T/C (dose: 10.0 mg/kg/injection, schedule: Q01DX010 (ip), vehicle: saline): 116 % of control | T/C [1]: 120 % of control | T/C (dose: 20.0 mg/kg/injection, schedule: Q01DX010 (ip), vehicle: saline): 112 % of control | T/C [2]: 120 % of control

CCN(CC)c1nc(N(C)C)nc(N(C)C)n1
T/C [12]: 105 % of control | T/C [5]: 99 % of control | T/C [7]: 104 % of control | T/C [9]: 117 % of control

CC(=O)CC(C)=O.CC(=O)CC(C)=O.CC(=O)CC(C)=O.[Ga]
T/C (dose: 25.0 mg/kg/injection, schedule: Q04DX003 (ip), vehicle: saline): 100 % of control | T/C (dose: 50.0 mg/kg/injection, schedule: Q04DX003 (ip), vehicle: saline): 95 % of control | T/C [14]: 86 % of control

COc1cc([C@@H]2c3cc4c(c(OC)c3C[C@H]3COC(=O)[C@@H]32)OCO4)cc(OC)c1OC
T/C (dose: 12.5 mg/kg/injection, schedule: Q01DX001 (ip), vehicle: other): 105 % of control | T/C (dose: 12.5 mg/kg/injection, schedule: Q01DX010 (ip), vehicle: saline): 172 % of control | T/C (dose: 25.0 mg/kg/injection, schedule: Q01DX001 (ip), vehicle: saline): 100 % of control | T/C (dose: 25.0 mg/kg/injection, schedule: Q01DX010 (ip), vehicle: saline): 104 % of control | T/C (dose: 50.0 mg/kg/injection, schedule: Q01DX001 (ip), vehicle: saline): 113 % of control | T/C (dose: 50.0 mg/kg/injection, schedule: Q01DX010 (ip), vehicle: other): 90 % of control | T/C [15]: 113 % of control | T/C [16]: 118 % of control

CC1CCC2(C)CCC(C(C)C)C2(O)CC1 (stereo not drawn)
T/C [17]: 103 % of control | T/C [14]: 100 % of control | T/C [3]: 109 % of control | T/C (dose: 400.0 mg/kg/injection, schedule: Q01DX009 (ip), vehicle: saline): 111 % of control | T/C (dose: 400.0 mg/kg/injection, schedule: Q04DX003 (ip), vehicle: saline): 100 % of control

CCOC(=O)NC(CC)CO (stereo not drawn)
T/C [4]: 100 % of control | T/C [6]: 95 % of control | T/C [8]: 90 % of control

NC1=Nc2cccc3cccc(c23)N1
T/C [10]: 92 % of control | T/C (dose: 12.5 mg/kg/injection, schedule: Q04DX003 (ip), vehicle: Klucel (hydroxypropylcellulose) (HPC)): 109 % of control | T/C [11]: 100 % of control | T/C (dose: 25.0 mg/kg/injection, schedule: Q04DX003 (ip), vehicle: Klucel (hydroxypropylcellulose) (HPC)): 100 % of control | T/C [12]: 100 % of control | T/C (dose: 50.0 mg/kg/injection, schedule: Q04DX003 (ip), vehicle: Klucel (hydroxypropylcellulose) (HPC)): 109 % of control

O=C(O)C1(NO)CCCC1
T/C [17]: 95 % of control | T/C (dose: 200.0 mg/kg/injection, schedule: Q01DX009 (ip), vehicle: saline): 104 % of control

CCOc1c(Br)cc(Br)cc1C=O
T/C [5]: 104 % of control | T/C [13]: 109 % of control | T/C [7]: 113 % of control | T/C (dose: 200.0 mg/kg/injection, schedule: Q04DX003 (ip), vehicle: saline with Tween-80): 109 % of control | T/C [9]: 100 % of control | T/C (dose: 400.0 mg/kg/injection, schedule: Q04DX003 (ip), vehicle: saline with Tween-80): 95 % of control

O=[N+]([O-])c1cccc(O)c1
T/C [15]: 100 % of control | T/C [5]: 109 % of control | T/C [14]: 118 % of control | T/C [16]: 100 % of control | T/C [7]: 86 % of control | T/C [3]: 100 % of control | T/C (dose: 400.0 mg/kg/injection, schedule: Q01DX001 (ip), vehicle: saline): 100 % of control

COc1cc(NS(C)(=O)=O)ccc1NS(C)(=O)=O
T/C [4]: 87 % of control | T/C [6]: 87 % of control | T/C [8]: 87 % of control

CCOC(=O)CC(=O)c1ccc(C)cc1
T/C [5]: 90 % of control | T/C [7]: 90 % of control
